US10576102B2, “KOC1-derived peptide and vaccine including same” (ONCOTHERAPY SCIENCE, INC., priority 2014, dated 2020)

Tested on: peptide-pulsed C1R-A33
Experiment: IFN-gamma ELISA of CTL lines and CTL clones (HLA-A*3303)
Format: cell-based, human
Description: CTLs were propagated in culture using methods similar to those disclosed by Riddell et al. (Walter E A et al., N Engl J Med 1995, 333(16): 1038-44; Riddell S R et al., Nat Med 1996, 2(2): 216-23). The CTLs were co-cultured in a total of 25 ml AIM-V medium containing 5% AS (AIM-V/5% AS) and 40 ng/ml anti-CD3 antibody with two types of Mitomycin C-treated human B lymphoblastoid cell lines at 5×10^6 cells/flask. One day after beginning of the culturing, 120 IU/ml IL-2 was added to the culture. On days 5, 8 and 11, a fresh AIM-V/5% AS medium containing 30 IU/ml IL-2 was added to the culture (Tanaka H et al., Br J Cancer 2001, 84(1): 94-9; Umano Y et al., Br J Cancer 2001, 84(8): 1052-7; Uchida N et al., Clin Cancer Res 2004, 10(24): 8577-86; Suda T et al., Cancer Sci 2006, 97(5): 411-9; Watanabe T et al., Cancer Sci 2005, 96(8): 498-506).
Dilution of CTLs was carried out to make 0.3, 1 and 3 cells/well in 96 round-bottomed microtiter plates (Nalge Nunc International). The CTLs were co-cultured with two types of Mitomycin C-treated human B lymphoblastoid cell lines at 1×10^4 cells/well in a total of 150 micro-1/well AIM-V/5% AS medium with 30 ng/ml anti-CD3 antibody and 125 IU/ml IL-2. Ten days later, IL-2 was added to the medium at 50 micro-1/well to reach a final concentration of 125 IU/ml. On day 14, the CTL activity was tested, and the CTL clones were propagated using the same method as described above (Uchida N et al., Clin Cancer Res 2004, 10(24): 8577-86; Suda T et al., Cancer Sci 2006, 97(5): 411-9; Watanabe T et al., Cancer Sci 2005, 96(8): 498-506).
Specifically, peptide-pulsed C1R-A33 (1×10^4 cells/well) was prepared as the stimulator cell. The induced CTLs, i.e., CTL lines and CTL clones, were used as the responder cell. The IFN-gamma ELISPOT assay and IFN-gamma ELISA were performed according to the manufacturer's manual.

With “ILAHNNFVGR (a peptide derived from KOC1) [SEQ ID NO: 52]” the “IFN-gamma production of CTL clones, ELISA” value (CTL clones by limiting dilution, peptide-pulsed C1R-A33, listed as KOC1-A33-10-281) was “Potent IFN-gamma production” and the “IFN-gamma production of CTL lines, ELISA” value (CTL lines, target cells pulsed with the peptide vs not pulsed, C1R-A33) was “potent IFN-gamma production”.
